According to patent US7713994B2 (Wyeth LLC, priority 2005, dated 2010):

Assays:
LoVo = experiment: Cytotoxicity assay (SRB), LoVo; assay type: cell-based; conditions: Homo sapiens, LoVo, 72 h, LoVo cells, 3 days, SRB; read-out: In Vitro Cellular Activity IC50 LOVO
Method in brief: (§1)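 Seeding: BT474 12000, HCT-116 4000, LoVo 6000, MCF-7 6000 cells/well; overnight attachment, 37 °C, 7% CO2. Drug exposure 3 d (BT474 6 d), RPMI 1640 + 5% FBS. Readout: TCA fix, 0.4% SRB, Tris solubilisation, A540.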

cyclin E/CDK2 enzyme = biological target: T1, cyclin E/CDK2 enzyme (Homo sapiens, UniProt P24941); experiment: CDK2 ELISA kinase assay (phospho-Rb ser 795 detection); assay type: biochemical; conditions: In Vitro Enzyme Assay, cyclin E/CDK2, read-out: CDK2 IC50
T1 construct: made in house; host or cells: Sf9 insect cells, recombinant baculovirus
Method in brief: (§2)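 ELISA format: plate-bound GST-Rb, 200 μM ATP, Sf9 cyclin/CDK enzyme, 1 h at 30° C; then anti-pRb Ser795 primary overnight at 4° C, HRP secondary, TMB. IC50 after no-substrate background subtraction.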

MCF-7 = experiment: Cytotoxicity assay (SRB), MCF-7; assay type: cell-based; conditions: Homo sapiens, MCF7, 72 h, MCF-7 cells, 3 days, SRB; read-out: In Vitro Cellular Activity IC50 MCF-7
Method in brief: as §1

SK-Br-3 = experiment: Cytotoxicity assay (SRB), SK-Br-3; assay type: cell-based; conditions: Homo sapiens; SK-Br-3 cells; read-out: In Vitro Cellular Activity IC50 SK-Br-3
cyclin D1/cdk 4 enzyme = biological target: T2, cyclin D1/cdk 4 enzyme (Homo sapiens, UniProt P11802); experiment: CDK4 ELISA kinase assay (phospho-Rb ser 795 detection); assay type: biochemical; conditions: In Vitro Enzyme Assay, cyclin D1/cdk 4, read-out: CDK4 IC50
T2 construct: made in house; host or cells: Sf9 insect cells, recombinant baculovirus
Method in brief: as §2

BT474 = experiment: Cytotoxicity assay (SRB), BT474; assay type: cell-based; conditions: Homo sapiens, BT-474, 144 h, BT474 cells, 6 days, SRB; read-out: In Vitro Cellular Activity IC50 BT474
Method in brief: as §1

cyclin B/CDK1 enzyme = biological target: T3, cyclin B/CDK1 enzyme (Homo sapiens, UniProt P06493); experiment: CDK1 ELISA kinase assay (phospho-Rb ser 795 detection); assay type: biochemical; conditions: In Vitro Enzyme Assay, cyclin B/CDK1, read-out: CDK1 IC50
T3 construct: purchased New England BioLabs; host or cells: Sf9 insect cells, recombinant baculovirus
Method in brief: as §2

SK-UT-1B = experiment: Cytotoxicity assay (SRB), SK-UT-1B; assay type: cell-based; conditions: Homo sapiens, Skut1B; SK-UT-1B cells; read-out: In Vitro Cellular Activity IC50 SK-UT-1B
HCT-116 = experiment: Cytotoxicity assay (SRB), HCT-116; assay type: cell-based; conditions: Homo sapiens, HCT-116, 72 h, HCT116 cells, 3 days, SRB; read-out: In Vitro Cellular Activity IC50 HCT116
Method in brief: as §1

T3 sequence (P06493 whole entry): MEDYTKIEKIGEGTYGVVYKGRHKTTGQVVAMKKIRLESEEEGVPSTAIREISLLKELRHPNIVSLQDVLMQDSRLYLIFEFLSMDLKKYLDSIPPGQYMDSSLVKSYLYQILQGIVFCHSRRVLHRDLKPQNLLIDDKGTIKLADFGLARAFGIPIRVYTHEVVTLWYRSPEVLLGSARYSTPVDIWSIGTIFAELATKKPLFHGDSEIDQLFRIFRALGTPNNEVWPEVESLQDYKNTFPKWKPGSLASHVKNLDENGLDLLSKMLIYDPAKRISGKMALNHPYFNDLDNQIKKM
T3 sequence (P14635 whole entry partner): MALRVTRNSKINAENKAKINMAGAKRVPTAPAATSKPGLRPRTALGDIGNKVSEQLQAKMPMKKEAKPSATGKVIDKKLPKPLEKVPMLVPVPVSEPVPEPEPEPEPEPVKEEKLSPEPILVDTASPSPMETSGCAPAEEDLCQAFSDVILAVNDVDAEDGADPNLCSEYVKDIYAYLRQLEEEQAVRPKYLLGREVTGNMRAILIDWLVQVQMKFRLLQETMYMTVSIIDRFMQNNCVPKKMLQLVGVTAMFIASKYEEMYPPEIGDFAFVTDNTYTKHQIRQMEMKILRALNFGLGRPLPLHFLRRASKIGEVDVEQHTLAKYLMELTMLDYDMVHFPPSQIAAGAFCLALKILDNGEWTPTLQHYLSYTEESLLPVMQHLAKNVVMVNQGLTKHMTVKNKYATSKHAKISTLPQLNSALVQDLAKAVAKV
T2 sequence (P11802 whole entry, species assumed): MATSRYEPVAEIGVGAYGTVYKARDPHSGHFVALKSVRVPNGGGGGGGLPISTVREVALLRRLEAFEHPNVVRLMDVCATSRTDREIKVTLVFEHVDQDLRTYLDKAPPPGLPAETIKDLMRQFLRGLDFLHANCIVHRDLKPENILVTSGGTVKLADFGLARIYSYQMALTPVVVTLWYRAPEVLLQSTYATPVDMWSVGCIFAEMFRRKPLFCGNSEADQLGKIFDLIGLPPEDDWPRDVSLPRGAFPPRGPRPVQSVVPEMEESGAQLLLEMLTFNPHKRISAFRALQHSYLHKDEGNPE
T2 sequence (P24385 whole entry partner, species assumed): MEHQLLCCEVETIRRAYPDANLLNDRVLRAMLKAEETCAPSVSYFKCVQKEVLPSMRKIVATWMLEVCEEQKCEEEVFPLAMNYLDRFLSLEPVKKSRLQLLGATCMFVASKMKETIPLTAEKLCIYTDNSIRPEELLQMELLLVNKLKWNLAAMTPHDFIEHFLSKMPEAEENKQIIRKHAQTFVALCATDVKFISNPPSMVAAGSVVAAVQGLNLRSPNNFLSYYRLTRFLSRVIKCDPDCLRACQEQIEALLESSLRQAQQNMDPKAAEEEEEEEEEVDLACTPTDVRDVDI

- IC50 (cyclin E/CDK2 enzyme): 6.2 µM
- IC50 (cyclin D1/cdk 4 enzyme): 11.2 µM
- IC50 (cyclin B/CDK1 enzyme): 34.8 µM
Structure (SMILES): O=C1NC(=O)c2ccccc2C1=CNc1ccc(O)c2ncccc12 [Example 569, 4-[(8-Hydroxy-quinolin-5-ylamino)-methylene]-4H-isoquinoline-1,3-dione]
- IC50 (LoVo): > 50 µM
- IC50 (MCF-7): 7.2 µM
- IC50 (SK-Br-3): 8.9 µM
- IC50 (BT474): 14.1 µM
- IC50 (SK-UT-1B): 2.2 µM
- IC50 (HCT-116): 7.1 µM
